Values quoted from earlier work in patent US9901098B2, “Methods for plant protection” (TDA Research, Inc, priority 2015, dated 2018).

Tests used:
[1] = test system: human workers
[2] = test system: microbes

For `[O][Cl+][O-]` [ClO2, chlorine dioxide], the “permissible exposure level (PEL) in air” value [1] is listed as 0.1 ppm, the “concentration that effectively kills microbes” value ([2]; aqueous solutions) is listed as ≤ 1 ppm and the “time required to kill microbes” value ([2]; solutions containing 1 ppm ClO2 or less) is listed as “as short as one minute”.
